ChEMBL document CHEMBL5726672, “Morpholin-pyridine derivatives” (2017)

Biological target: Trace amine-associated receptor 1 (Mus musculus, UniProt Q923Y8)
Test: Radioligand Binding Assay : HEK-293 cells stably expressing mouse TAAR1 were maintained at 37° C. and 5% CO2 in DMEM high glucose medium, containing fetal calf serum (10%, heat inactivated for 30 min at 56° C.), penicillin/streptomycin (1%), and 375 μg/ml geneticin (Gibco). Cells were released from culture flasks using trypsin/EDTA, harvested, washed twice with ice-cold PBS (without Ca2+ and Mg2+), pelleted at 1,000 rpm for 5 min at 4° C., frozen and stored at −80° C. Frozen pellets were suspended in 20 ml HEPES-NaOH (20 mM, pH 7.4) containing 10 mM EDTA and homogenized with a Polytron (PT 6000, Kinematica) at 14′000 rpm for 20 s. The homogenate was centrifuged at 48,000×g for 30 min at 4° C. Subsequently, the supernatant was removed and discarded, and the pellet resuspended in 20 ml HEPES-NaOH (20 mM, pH 7.4) containing 0.1 mM EDTA using the Polytron (20 s at 14′000 rpm). This procedure was repeated and the final pellet resuspended in HEPES-NaOH containing 0.1 mM EDTA and homogenized using the Polytron. Typically, aliquots of 2 ml membrane portions were stored at −80° C. With each new membrane batch the dissociation constant (Kd) was determined via a saturation curve.

Trace amine-associated receptor 1, sequence (Q923Y8 whole entry): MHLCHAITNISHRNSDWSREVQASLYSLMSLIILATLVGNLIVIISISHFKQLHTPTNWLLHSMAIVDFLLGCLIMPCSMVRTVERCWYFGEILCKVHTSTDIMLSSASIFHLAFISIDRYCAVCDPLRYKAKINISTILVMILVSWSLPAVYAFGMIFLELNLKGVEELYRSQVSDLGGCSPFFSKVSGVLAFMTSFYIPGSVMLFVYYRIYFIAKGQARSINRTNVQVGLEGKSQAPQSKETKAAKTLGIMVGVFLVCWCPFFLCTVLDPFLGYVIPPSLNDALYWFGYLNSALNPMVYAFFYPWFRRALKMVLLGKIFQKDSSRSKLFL

CCCc1n[nH]c(C(=O)Nc2ccc(C3CNCCO3)nc2)c1Cl (racemic)
Ki: 5.6 nM
